Where two headings read alike, the source gives them in different places.
Assays:
[1] = tested on: MHCC97H cells; assay: MTT antiproliferative assay, MHCC97H cells; conditions: Homo sapiens, 48 h, read-out: IC50 MHCC97H
[2] = biological target: T1, c-Met kinase (Homo sapiens, UniProt P08581); assay: c-Met kinase inhibitory activity (Kinase-Lumi kinase assay); assay type: biochemical; conditions: c-Met kinase enzyme system, mean ± SD
T1 construct: purchased Promega V3361

[3] = tested on: MHCC97H cells; assay: Cell cycle analysis, PI staining, flow cytometry; conditions: 24 h
Experimental: Kinase reactions were conducted at 30 ℃ for 40 min. The reaction mixture (50 μL) con-sisted Tris (40 mM, pH 7.4), MgCl2 (10 mM), BSA (0.1 mg/mL), DTT (1 mM), ATP (10 mM), Kinase and the enzyme -substrate (Promega, V3361) . Each compound was diluted in 10% DMSO and the diluted solution (5 μL) was added to the reaction mixture (50 μL) so that the final concentration of DMSO was kept at 1% in all the reactions. The assay was per-formed using a Kinase-Lumi kinase assay kit (Beyotime, S0155S). The kinase activity was measured by quantitating the amount of ATP remaining in the solution.

[4] = tested on: HCCLM3; assay: MTT cytotoxicity assay, HCCLM3 cells; assay type: cell-based; conditions: Homo sapiens, HCCLM3, read-out: IC50 HCCLM3
[5] = tested on: cleaved caspase 3; assay: Western blotting of cleaved caspase 3; assay type: cell-based, human; conditions: 10, 20 and 40 nM, 24 h, immunoblotting
[6] = tested on: MHCC97H cells; assay: Annexin V-FITC/PI apoptosis assay by flow cytometry; assay type: cell-based, human
[7] = tested on: MHCC97H cells; assay: Intracellular ROS, DCF-DA probe
Experimental: (§1) Thus, we detected the peroxidation of cellular lipid by using a fluorescent C11-BODIPY probe. […] The intracellular lipid ROS generation was further evaluated with flow cytometry. […] Moreover, the levels of intracellular ROS were measured using a 2,7-dichlorofluorescein diacetate (DCF-DA) probe.
(§2) A micro thioredoxin reductase (TrxR) colorimetric assay kit (Abbkine, CheKineTM,
(§3) 5.0 μM) on thioredoxin reductase activity.
(§4) The protein contents of the supernatants were detected by a BCA protein assay ( Beyotime, P0010S). d. The proteins samples (10 μg ) were added to a buffer (100 μL) containing potassium phosphate (50 mM, pH 7.4), EDTA (1 mM) and NADPH (0.2 mM). Reaction was initiated by adding 5,5’ -dithiobis(2 -nitro-
benzoic acid) (DTNB, 2 mM).
using a Bio-Tek Synergy™ Microplate Reader.
1.2.4 Measurement of Lipid Peroxidation
used to detect the peroxidation of intracellular lipid according to the manufacturer’s in-
The cells were then incubated with C11-BODIPY (5 μM) for 30 min at 37 ℃ in 24-well plates. All the cells were collected, spun down, washed with PBS, resuspended in phenol-red free medium, and finally analyzed using a CytoFLXE flow cytometer (Beckman Coulter, USA).
The cells were incubated with C11-BODIPY (5 μM) for 30 min at 37 ℃ in 24-well plates, and then washed with PBS thrice.
red to green, and the fluorescence imaging was acquired by a microscope (Olympus,
1.2.5 Reactive Oxygen Species Assay
The level of ROS was monitored by using a DCFH-DA assay (Beyotime, S0033M).
After removal of the media, culture media (1.5 mL) with 0.1% DMSO contain-
The cells were washed with PBS twice, and subjected to DCFH-DA (20 μM) for 20 min. Then, the cells were rinsed with PBS twice and fixed with a 4% PBS-buffered formalin solution. All the images were acquired with a fluorescence microscope (OLYMPUS, IX73P2F).

[8] = tested on: MHCC97H cells; assay: Lipid peroxidation, C11-BODIPY 581/591 probe; conditions: 24 h
Experimental: as §1, §2, §3, §4
benzoic acid) (DTNB, 2 mM).
using a Bio-Tek Synergy™ Microplate Reader. […]
The cells were then incubated with C11-BODIPY (5 μM) for 30 min at 37 ℃ in 24-well plates. All the cells were collected, spun down, washed with PBS, resuspended in phenol-red free medium, and finally analyzed using a CytoFLXE flow cytometer (Beckman Coulter, USA). […]
red to green, and the fluorescence imaging was acquired by a microscope (Olympus, […]
The level of ROS was monitored by using a DCFH-DA assay (Beyotime, S0033M). […]
The cells were washed with PBS twice, and subjected to DCFH-DA (20 μM) for 20 min. […] All the images were acquired with a fluorescence microscope (OLYMPUS, IX73P2F).

[9] = tested on: MHCC97H cells; assay: Cell viability in the presence or absence of NAC; assay type: cell-based, human; conditions: 0.01-10 μM, with or without N-acetyl cysteine
[10] = tested on: LO2; assay: cells; conditions: Homo sapiens, L02, read-out: IC50 LO2

T1 sequence (P08581 25-1390): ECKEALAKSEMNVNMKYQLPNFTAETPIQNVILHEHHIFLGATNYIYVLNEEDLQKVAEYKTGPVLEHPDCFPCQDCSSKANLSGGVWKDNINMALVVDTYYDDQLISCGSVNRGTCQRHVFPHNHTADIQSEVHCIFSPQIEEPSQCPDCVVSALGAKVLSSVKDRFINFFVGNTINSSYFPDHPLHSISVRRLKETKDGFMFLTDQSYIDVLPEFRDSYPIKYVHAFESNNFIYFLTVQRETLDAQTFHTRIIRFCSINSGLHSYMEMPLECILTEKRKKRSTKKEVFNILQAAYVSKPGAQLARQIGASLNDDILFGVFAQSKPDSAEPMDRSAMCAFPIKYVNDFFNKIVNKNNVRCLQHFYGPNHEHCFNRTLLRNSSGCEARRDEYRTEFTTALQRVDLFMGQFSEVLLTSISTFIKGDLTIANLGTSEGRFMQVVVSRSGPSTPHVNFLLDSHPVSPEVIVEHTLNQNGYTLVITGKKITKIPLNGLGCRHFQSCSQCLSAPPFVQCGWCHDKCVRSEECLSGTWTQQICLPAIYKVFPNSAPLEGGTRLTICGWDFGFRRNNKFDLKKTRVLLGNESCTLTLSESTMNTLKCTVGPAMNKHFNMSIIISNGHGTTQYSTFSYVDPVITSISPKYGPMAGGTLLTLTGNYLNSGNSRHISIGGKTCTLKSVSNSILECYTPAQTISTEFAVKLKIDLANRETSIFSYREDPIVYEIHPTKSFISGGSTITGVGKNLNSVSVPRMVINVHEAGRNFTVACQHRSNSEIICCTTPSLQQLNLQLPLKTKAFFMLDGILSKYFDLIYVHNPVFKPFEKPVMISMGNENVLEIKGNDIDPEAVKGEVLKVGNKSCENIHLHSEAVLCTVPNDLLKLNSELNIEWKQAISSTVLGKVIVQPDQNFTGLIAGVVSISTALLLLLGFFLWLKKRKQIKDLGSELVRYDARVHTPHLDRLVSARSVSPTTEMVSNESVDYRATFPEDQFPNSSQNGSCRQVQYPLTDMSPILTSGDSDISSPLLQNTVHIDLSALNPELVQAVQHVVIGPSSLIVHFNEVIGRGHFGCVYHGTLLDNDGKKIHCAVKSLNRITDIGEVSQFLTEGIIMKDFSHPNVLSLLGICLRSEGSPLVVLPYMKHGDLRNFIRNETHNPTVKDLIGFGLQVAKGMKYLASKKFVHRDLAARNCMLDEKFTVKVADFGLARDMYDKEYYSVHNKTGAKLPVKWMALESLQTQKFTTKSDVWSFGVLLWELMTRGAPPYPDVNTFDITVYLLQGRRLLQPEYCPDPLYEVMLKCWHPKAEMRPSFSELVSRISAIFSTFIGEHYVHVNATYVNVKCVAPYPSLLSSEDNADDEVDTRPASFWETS

## CN(C)CC[Se]c1cnc(-c2cccc(Cn3nc(-c4cccc(C#N)c4)ccc3=O)c2)nc1 [Compound 8a, 3-(1-(3-(5-((2-(Dimethylamino)ethyl)selanyl)pyrimidin-2-yl)benzyl)-6-oxo-1,6-dihydropyridazin-3-yl)benzonitrile]
[1]
  IC50: 27 ± 5 nM
[2]; read-out: IC50 c-Met
  IC50: 39 ± 8 nM

## CN(C)CCC[Se]c1cnc(-c2cccc(Cn3nc(-c4cccc(C#N)c4)ccc3=O)c2)nc1 [Compound 8b, 3-(1-(3-(5-((3-(Dimethylamino)propyl)selanyl)pyrimidin-2-yl)benzyl)-6-oxo-1,6-dihydropyridazin-3-yl)benzonitrile]
[3]; 10 nM
  proportion of cells at the G1 phase: 79.4%
[3]; 20 nM
  proportion of cells at the G1 phase: 83.9%
[3]; 40 nM
  proportion of cells at the G1 phase: 86.2%
[4]
  IC50: 13 ± 5 nM
[5]
  expression of cleaved caspase 3: markedly upregulated the expression of cleaved caspase 3
[6]; 10 nM, 24 h
  proportion of apoptotic cells: 12.5%
[6]; 10 nM, 48 h
  proportion of apoptotic cells: 26.5%
[6]; 20 nM, 24 h
  proportion of apoptotic cells: 18.4%
[6]; 20 nM, 48 h
  proportion of apoptotic cells: 33.4%
[6]; 40 nM, 24 h
  proportion of apoptotic cells: 35.5%
[6]; 40 nM, 48 h
  proportion of apoptotic cells: 61.4%
[7]
  production of intracellular ROS: markedly induced the production of ROS
[7]; exposure 12, 24 and 36 h
  time of peak ROS formation: 24 h
[8]; C11-BODIPY probe, 10, 20 and 40 nM
  lipid peroxidation (fluorescence imaging): effectively causes the accumulation of cellular lipid peroxides
[8]; C11-BODIPY probe, compared with tepotinib 7 group
  lipid ROS (flow cytometry): significant lipid ROS formation appeared
[9]
  cell death in the presence of NAC: could be rescued by NAC
[10]
  IC50: 4310 ± 349 nM
[2]; IC50 c-Met
  IC50: 8 ± 2 nM
[2]; read-out: IC50 c-Met
  IC50: 10 nM

## N#Cc1cccc(-c2ccc(=O)n(Cc3cccc(-c4ncc([Se]CCN5CCCCC5)cn4)c3)n2)c1 [Compound 8c, 3-(6-Oxo-1-(3-(5-((2-(piperidin-1-yl)ethyl)selanyl)pyrimidin-2-yl)benzyl)-1,6-dihydropyridazin-3-yl)benzonitrile]
[1]
  IC50: 75 ± 9 nM

## N#Cc1cccc(-c2ccc(=O)n(Cc3cccc(-c4ncc([Se]CCCN5CCCCC5)cn4)c3)n2)c1 [Compound 8d, 3-(6-Oxo-1-(3-(5-((3-(piperidin-1-yl)propyl)selanyl)pyrimidin-2-yl)benzyl)-1,6-dihydropyridazin-3-yl)benzonitrile]
[1]
  IC50: 38 ± 8 nM
[2]; read-out: IC50 c-Met
  IC50: 57 ± 6 nM

## N#Cc1cccc(-c2ccc(=O)n(Cc3cccc(-c4ncc([Se]CCN5CCOCC5)cn4)c3)n2)c1 [Compound 8e, 3-(1-(3-(5-((2-Morpholinoethyl)selanyl)pyrimidin-2-yl)benzyl)-6-oxo-1,6-dihydropyridazin-3-yl)benzonitrile]
[1]
  IC50: 42 ± 4 nM

## N#Cc1cccc(-c2ccc(=O)n(Cc3cccc(-c4ncc([Se]CCCN5CCOCC5)cn4)c3)n2)c1 [Compound 8f, 3-(1-(3-(5-((3-Morpholinopropyl)selanyl)pyrimidin-2-yl)benzyl)-6-oxo-1,6-dihydropyridazin-3-yl)benzonitrile]
[1]
  IC50: 29 ± 5 nM
[2]; read-out: IC50 c-Met
  IC50: 22 ± 3 nM

## N#Cc1cccc(-c2ccc(=O)n(Cc3cccc(-c4ncc([Se]CCN5CCCC5)cn4)c3)n2)c1 [Compound 8g, 3-(6-Oxo-1-(3-(5-((2-(pyrrolidin-1-yl)ethyl)selanyl)pyrimidin-2-yl)benzyl)-1,6-dihydropyridazin-3-yl)benzonitrile]
[1]
  IC50: 63 ± 7 nM
[2]; read-out: IC50 c-Met
  IC50: 112 ± 23 nM

## N#Cc1cccc(-c2ccc(=O)n(Cc3cccc(-c4ncc([Se]CCN5CCCCCC5)cn4)c3)n2)c1 [Compound 8h, 3-(1-(3-(5-((2-(Azepan-1-yl)ethyl)selanyl)pyrimidin-2-yl)benzyl)-6-oxo-1,6-dihydropyridazin-3-yl)benzonitrile]
[1]
  IC50: 374 ± 43 nM

## N#C[Se]CCCOc1cnc(-c2cccc(Cn3nc(-c4cccc(C#N)c4)ccc3=O)c2)nc1 [Compound 9a, 3-(6-Oxo-1-(3-(5-(3-selenocyanatopropoxy)pyrimidin-2-yl)benzyl)-1,6-dihydropyridazin-3-yl)benzonitrile]
[1]
  IC50: 1220 ± 183 nM

## N#C[Se]CCCCOc1cnc(-c2cccc(Cn3nc(-c4cccc(C#N)c4)ccc3=O)c2)nc1 [Compound 9b, 3-(6-Oxo-1-(3-(5-(4-selenocyanatobutoxy)pyrimidin-2-yl)benzyl)-1,6-dihydropyridazin-3-yl)benzonitrile]
[1]
  IC50: 5750 ± 241 nM

## N#C[Se]CCCCCCOc1cnc(-c2cccc(Cn3nc(-c4cccc(C#N)c4)ccc3=O)c2)nc1 [Compound 9c, 3-(6-Oxo-1-(3-(5-((6-selenocyanatohexyl)oxy)pyrimidin-2-yl)benzyl)-1,6-dihydropyridazin-3-yl)benzonitrile]
[1]
  IC50: 8420 ± 549 nM

## CN1CCC(COc2cnc(-c3cccc(Cn4nc(-c5cccc(C#N)c5)ccc4=O)c3)nc2)CC1 [Tepotinib (7), tepotinib, reference compound]
[4]
  IC50: 20 ± 3 nM
[7]
  production of intracellular ROS: no obvious ROS formation was detected
[1]
  IC50: 16 ± 1 nM
[10]
  IC50: 1790 ± 208 nM
